Like-named read-outs stand apart in the source and are kept apart here.
Columns and labels:
[1] = molecular target: BTK (Homo sapiens, UniProt Q06187); experiment: BTK cell degradation in TMD-8 cells, HTRF assay; type: cell-based; parameters: endogenous in cells; host or cells: TMD-8 cells; settings: 6 h treatment, IC50 (DC50) of BTK degradation
Summary of the method: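 TMD-8 cells treated 6 h with 8-dose series (6-fold dilutions, 0.2% DMSO final), then lysed and BTK quantified by HTRF (337/665/620 nm) after overnight antibody incubation at room temperature. Degradation normalized to DMSO high and low controls; DC50 and Dmax from four-parameter fit.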

[2] = system: HEK-293 cells; experiment: HEK-293 cytotoxicity detection (CellTiter-Glo); type: cell-based; settings: 72 h incubation, CellTiter-Glo luminescence, read-out: HEK293
Summary of the method: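 HEK-293 cells exposed 72 h to 8 compounds doses (4-fold dilutions, top stock 5 mM at 500×) in 0.2% DMSO. Viability by CellTiter-Glo luminescence; inhibition normalised to DMSO high control and low control, IC50 from four-parameter curve fit.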

Sequence of BTK (Q06187 whole entry): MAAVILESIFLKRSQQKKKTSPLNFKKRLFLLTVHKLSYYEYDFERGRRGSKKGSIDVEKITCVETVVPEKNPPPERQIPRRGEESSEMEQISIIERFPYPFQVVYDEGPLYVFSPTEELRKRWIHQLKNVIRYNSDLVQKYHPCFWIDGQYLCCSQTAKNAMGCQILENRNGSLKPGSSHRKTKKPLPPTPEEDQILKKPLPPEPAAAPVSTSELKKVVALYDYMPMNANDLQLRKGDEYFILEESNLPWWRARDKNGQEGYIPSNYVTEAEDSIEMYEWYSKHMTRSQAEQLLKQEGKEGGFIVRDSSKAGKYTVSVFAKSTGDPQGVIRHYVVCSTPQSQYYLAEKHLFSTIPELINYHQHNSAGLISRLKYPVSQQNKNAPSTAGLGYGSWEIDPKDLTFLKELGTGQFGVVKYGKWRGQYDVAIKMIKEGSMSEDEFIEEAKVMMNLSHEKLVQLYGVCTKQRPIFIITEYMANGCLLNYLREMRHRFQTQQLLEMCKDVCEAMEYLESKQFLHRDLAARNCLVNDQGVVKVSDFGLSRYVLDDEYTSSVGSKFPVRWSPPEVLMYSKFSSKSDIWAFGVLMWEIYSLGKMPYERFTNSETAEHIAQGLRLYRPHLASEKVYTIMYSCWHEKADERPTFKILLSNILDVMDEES

Structure (SMILES) | DC50 [1] | IC50 [2] | IC50 ([2]; Homo sapiens, 72 h)
NC(=O)c1c(-c2ccc(C(=O)Nc3cc(C(F)(F)F)ccn3)cc2)nn2c1Nc1ccc(N3CCN(CC4CCN(c5ccc(N6CCC(=O)NC6=O)cc5)CC4)CC3)cc1CC2 [Example B1, 7-(4-((1-(4-(2,4-dioxotetrahydropyrimidin-1(2H)-yl)phenyl)piperidin-4-yl)methyl)piperazin-1-yl)-2-(4-((4-(trifluoromethyl)pyridin-2-yl)carbamoyl)phenyl)-9,10-dihydro-4H-benzo[d]pyrazolo[1,5-a][1,3]diazepine-3-carboxamide] | 0.561 nM | > 10000 nM | –
NC(=O)c1c(-c2ccc(C(=O)Nc3cc(C(F)(F)F)ccn3)cc2F)nn2c1Nc1ccc(N3CCN(CC4CCN(c5ccc(N6CCC(=O)NC6=O)cc5)CC4)CC3)cc1CC2 [Example B2, 7-(4-((1-(4-(2,4-dioxotetrahydropyrimidin-1(2H)-yl)phenyl)piperidin-4-yl)methyl)piperazin-1-yl)-2-(2-fluoro-4-((4-(trifluoromethyl)pyridin-2-yl)carbamoyl)phenyl)-9,10-dihydro-4H-benzo[d]pyrazolo[1,5-a][1,3]diazepine-3-carboxamide] | 0.842 nM | – | > 10000 nM
Cc1cc(N2CCC(CN3CCN(c4ccc5c(c4)CCn4nc(-c6ccc(C(=O)Nc7cc(C(F)(F)F)ccn7)cc6)c(C(N)=O)c4N5)CC3)CC2)ccc1N1CCC(=O)NC1=O [Example B3, 7-(4-((1-(4-(2,4-dioxotetrahydropyrimidin-1(2H)-yl)-3-methylphenyl)piperidin-4-yl)methyl)piperazin-1-yl)-2-(4-((4-(trifluoromethyl)pyridin-2-yl)carbamoyl)phenyl)-9,10-dihydro-4H-benzo[d]pyrazolo[1,5-a][1,3]diazepine-3-carboxamide] | 0.534 nM | – | 88.8 nM
NC(=O)c1c(-c2ccc(C(=O)Nc3ccccn3)cc2)nn2c1Nc1ccc(N3CCN(CC4CCN(c5ccc(N6CCC(=O)NC6=O)cc5)CC4)CC3)cc1CC2 [Example B4, 7-(4-((1-(4-(2,4-dioxotetrahydropyrimidin-1(2H)-yl)phenyl)piperidin-4-yl)methyl)piperazin-1-yl)-2-(4-(pyridin-2-ylcarbamoyl)phenyl)-9,10-dihydro-4H-benzo[d]pyrazolo[1,5-a][1,3]diazepine-3-carboxamide] | 0.704 nM | – | > 10000 nM
Cc1cc(-c2nn3c(c2C(N)=O)Nc2ccc(N4CCN(CC5CCN(c6ccc(N7CCC(=O)NC7=O)cc6)CC5)CC4)cc2CC3)ccc1C(=O)Nc1cc(C(F)(F)F)ccn1 [Example B5, 7-(4-((1-(4-(2,4-dioxotetrahydropyrimidin-1(2H)-yl)phenyl)piperidin-4-yl)methyl)piperazin-1-yl)-2-(3-methyl-4-((4-(trifluoromethyl)pyridin-2-yl)carbamoyl)phenyl)-9,10-dihydro-4H-benzo[d]pyrazolo[1,5-a][1,3]diazepine-3-carboxamide] | 1.46 nM | – | > 10000 nM
Cc1cc(C(=O)Nc2cc(C(F)(F)F)ccn2)ccc1-c1nn2c(c1C(N)=O)Nc1ccc(N3CCN(CC4CCN(c5ccc(N6CCC(=O)NC6=O)cc5)CC4)CC3)cc1CC2 [Example B6, 7-(4-((1-(4-(2,4-dioxotetrahydropyrimidin-1(2H)-yl)phenyl)piperidin-4-yl)methyl)piperazin-1-yl)-2-(2-methyl-4-((4-(trifluoromethyl)pyridin-2-yl)carbamoyl)phenyl)-9,10-dihydro-4H-benzo[d]pyrazolo[1,5-a][1,3]diazepine-3-carboxamide] | 2.22 nM | – | > 10000 nM
Cc1cc(-c2nn3c(c2C(N)=O)Nc2ccc(N4CCN(CC5CCN(c6ccc(N7CCC(=O)NC7=O)cc6)CC5)CC4)cc2CC3)cc(C)c1C(=O)Nc1cc(C(F)(F)F)ccn1 [Example B7, 2-(3,5-dimethyl-4-((4-(trifluoromethyl)pyridin-2-yl)carbamoyl)phenyl)-7-(4-((1-(4-(2,4-dioxotetrahydropyrimidin-1(2H)-yl)phenyl)piperidin-4-yl)methyl)piperazin-1-yl)-9,10-dihydro-4H-benzo[d]pyrazolo[1,5-a][1,3]diazepine-3-carboxamide] | 5.37 nM | – | > 10000 nM
NC(=O)c1c(-c2ccc(C(=O)Nc3cc(C(F)(F)F)ccn3)c(F)c2)nn2c1Nc1ccc(N3CCN(CC4CCN(c5ccc(N6CCC(=O)NC6=O)cc5)CC4)CC3)cc1CC2 [Example B8, 7-(4-((1-(4-(2,4-dioxotetrahydropyrimidin-1(2H)-yl)phenyl)piperidin-4-yl)methyl)piperazin-1-yl)-2-(3-fluoro-4-((4-(trifluoromethyl)pyridin-2-yl)carbamoyl)phenyl)-9,10-dihydro-4H-benzo[d]pyrazolo[1,5-a][1,3]diazepine-3-carboxamide] | 1.82 nM | – | 301 nM
COc1ccnc(NC(=O)c2ccc(-c3nn4c(c3C(N)=O)Nc3ccc(N5CCN(CC6CCN(c7ccc(N8CCC(=O)NC8=O)cc7)CC6)CC5)cc3CC4)cc2)c1 [Example B9, 7-(4-((1-(4-(2,4-dioxotetrahydropyrimidin-1(2H)-yl)phenyl)piperidin-4-yl)methyl)piperazin-1-yl)-2-(4-((4-methoxypyridin-2-yl)carbamoyl)phenyl)-9,10-dihydro-4H-benzo[d]pyrazolo[1,5-a][1,3]diazepine-3-carboxamide] | 6.14 nM | – | > 10000 nM
Cc1ccnc(NC(=O)c2ccc(-c3nn4c(c3C(N)=O)Nc3ccc(N5CCN(CC6CCN(c7ccc(N8CCC(=O)NC8=O)cc7)CC6)CC5)cc3CC4)cc2)c1 [Example B10, 7-(4-((1-(4-(2,4-dioxotetrahydropyrimidin-1(2H)-yl)phenyl)piperidin-4-yl)methyl)piperazin-1-yl)-2-(4-((4-methylpyridin-2-yl)carbamoyl)phenyl)-9,10-dihydro-4H-benzo[d]pyrazolo[1,5-a][1,3]diazepine-3-carboxamide] | 4.69 nM | – | > 10000 nM
NC(=O)c1c(-c2ccc(C(=O)Nc3cc(C4CC4)ccn3)cc2)nn2c1Nc1ccc(N3CCN(CC4CCN(c5ccc(N6CCC(=O)NC6=O)cc5)CC4)CC3)cc1CC2 [Example B11, 2-(4-((4-cyclopropylpyridin-2-yl)carbamoyl)phenyl)-7-(4-((1-(4-(2,4-dioxotetrahydropyrimidin-1(2H)-yl)phenyl)piperidin-4-yl)methyl)piperazin-1-yl)-9,10-dihydro-4H-benzo[d]pyrazolo[1,5-a][1,3]diazepine-3-carboxamide] | 0.387 nM | – | > 10000 nM
NC(=O)c1c(-c2ccc(C(=O)Nc3cc(C(F)(F)F)ccn3)cc2)nn2c1Nc1ccc(N3CCN(CC4CCN(c5ccc(N6CCC(=O)NC6=O)cc5)CC4)CC3)cc1CC2 [Example B12, 7-(4-((1-(4-(2,4-dioxotetrahydropyrimidin-1(2H)-yl)phenyl)piperidin-4-yl)methyl)piperazin-1-yl)-2-(4-((4-(trifluoromethyl)pyridin-2-yl)carbamoyl)phenyl)-9,10-dihydro-4H-benzo[d]pyrazolo[1,5-a][1,3]diazepine-3-carboxamide] | 5.82 nM | – | > 10000 nM
NC(=O)c1c(-c2ccc(C(=O)Nc3nccc(C(F)(F)F)c3F)cc2)nn2c1Nc1ccc(N3CCN(CC4CCN(c5ccc(N6CCC(=O)NC6=O)cc5)CC4)CC3)cc1CC2 [Example B13, 7-(4-((1-(4-(2,4-dioxotetrahydropyrimidin-1(2H)-yl)phenyl)piperidin-4-yl)methyl)piperazin-1-yl)-2-(4-((3-fluoro-4-(trifluoromethyl)pyridin-2-yl)carbamoyl)phenyl)-9,10-dihydro-4H-benzo[d]pyrazolo[1,5-a][1,3]diazepine-3-carboxamide] | 0.408 nM | – | 180 nM
NC(=O)c1c(-c2cc(F)c(C(=O)Nc3cc(C(F)(F)F)ccn3)c(F)c2)nn2c1Nc1ccc(N3CCN(CC4CCN(c5ccc(N6CCC(=O)NC6=O)cc5)CC4)CC3)cc1CC2 [Example B14, 2-(3,5-difluoro-4-((4-(trifluoromethyl)pyridin-2-yl)carbamoyl)phenyl)-7-(4-((1-(4-(2,4-dioxotetrahydropyrimidin-1(2H)-yl)phenyl)piperidin-4-yl)methyl)piperazin-1-yl)-9,10-dihydro-4H-benzo[d]pyrazolo[1,5-a][1,3]diazepine-3-carboxamide] | 1.61 nM | – | 75.4 nM
Cc1c(C(=O)Nc2cc(C(F)(F)F)ccn2)ccc(-c2nn3c(c2C(N)=O)Nc2ccc(N4CCN(CC5CCN(c6ccc(N7CCC(=O)NC7=O)cc6)CC5)CC4)cc2CC3)c1F [Example B15, 7-(4-((1-(4-(2,4-dioxotetrahydropyrimidin-1(2H)-yl)phenyl)piperidin-4-yl)methyl)piperazin-1-yl)-2-(2-fluoro-3-methyl-4-((4-(trifluoromethyl)pyridin-2-yl)carbamoyl)phenyl)-9,10-dihydro-4H-benzo[d]pyrazolo[1,5-a][1,3]diazepine-3-carboxamide] | 1.13 nM | – | 185 nM
NC(=O)c1c(-c2ccc(C(=O)Nc3cccc(C(F)(F)F)n3)cc2)nn2c1Nc1ccc(N3CCN(CC4CCN(c5ccc(N6CCC(=O)NC6=O)cc5)CC4)CC3)cc1CC2 [Example B16, 7-(4-((1-(4-(2,4-dioxotetrahydropyrimidin-1(2H)-yl)phenyl)piperidin-4-yl)methyl)piperazin-1-yl)-2-(4-((6-(trifluoromethyl)pyridin-2-yl)carbamoyl)phenyl)-9,10-dihydro-4H-benzo[d]pyrazolo[1,5-a][1,3]diazepine-3-carboxamide] | 1.32 nM | – | 232 nM

From US20240246977A1, “DEGRADATION OF BRUTON'S TYROSINE KINASE (BTK) BY CONJUGATION OF BTK INHIBITORS WITH E3 LIGASE LIGAND AND METHOD OF USE” (BeiGene Switzerland GmbH, priority 2021, published 2024)
